Assay results taken from PubChem BioAssay (NCI).
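In this assay, cells in 96-well plates receive the compound at five concentrations for 48 hours. Endpoints are linearly interpolated between the surrounding concentrations. Abbreviation: GI50, concentration required for 50% inhibition of growth. At the TGI there is no net growth.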

How the values were obtained:
Assay in all cases: inhibition of tumour cell growth, NCI panel, 48 h
SNB-19 CNS = system: SNB-19 CNS
MOLT-4 leukemia = system: MOLT-4 leukemia
NCI-H460 lung = system: NCI-H460 lung
OVCAR-3 ovarian = system: OVCAR-3 ovarian
SK-MEL-2 melanoma = system: SK-MEL-2 melanoma
HS 578T breast = system: HS 578T breast
CCRF-CEM leukemia = system: CCRF-CEM leukemia
TK-10 renal = system: TK-10 renal

## O=C(/C=C/c1ccccc1)CCc1c(O)c2ccccc2oc1=O
SNB-19 CNS
  TGI: > 100 µM
MOLT-4 leukemia
  TGI: > 100 µM
NCI-H460 lung
  TGI: > 100 µM
OVCAR-3 ovarian
  TGI: > 100 µM
SK-MEL-2 melanoma
  TGI: > 100 µM
HS 578T breast
  TGI: > 100 µM
CCRF-CEM leukemia
  TGI: > 100 µM

## c1ccc(-c2cnc3nc4ccccc4nc3n2)cc1
SNB-19 CNS
  TGI: 32.7 µM
MOLT-4 leukemia
  TGI: 43.1 µM
NCI-H460 lung
  TGI: 13.3 µM
OVCAR-3 ovarian
  TGI: 5.63 µM
SK-MEL-2 melanoma
  TGI: 15.1 µM
TK-10 renal
  TGI: 20.8 µM
HS 578T breast
  TGI: 33.3 µM
CCRF-CEM leukemia
  TGI: 10.2 µM

## O=S1(=O)CC(Br)C(Br)C1 (centres undefined)
SNB-19 CNS
  GI50: 29.4 µM
  TGI: > 100 µM
MOLT-4 leukemia
  GI50: 3.27 µM
  TGI: 16.2 µM
NCI-H460 lung
  GI50: 20.4 µM
  TGI: 61.8 µM
OVCAR-3 ovarian
  GI50: 2.77 µM
  TGI: 7.82 µM
SK-MEL-2 melanoma
  GI50: 8.74 µM
  TGI: 28.6 µM
TK-10 renal
  GI50: 3.77 µM
  TGI: 11.9 µM
HS 578T breast
  GI50: 5.5 µM
  TGI: 76.3 µM
CCRF-CEM leukemia
  GI50: 1.6 µM
  TGI: 8.95 µM

## Cc1cc(Cl)ccc1NC(=O)NC(C)(C)COC(=O)Nc1cccc(Cl)c1
SNB-19 CNS
  GI50: 5.57 µM
  TGI: > 100 µM
MOLT-4 leukemia
  GI50: 6.19 µM
  TGI: 79 µM
NCI-H460 lung
  GI50: 4.86 µM
  TGI: 36.7 µM
OVCAR-3 ovarian
  GI50: 3.78 µM
  TGI: 12.7 µM
SK-MEL-2 melanoma
  GI50: 8.08 µM
  TGI: 34.1 µM
TK-10 renal
  GI50: 8.86 µM
  TGI: > 100 µM
HS 578T breast
  GI50: 5.65 µM
  TGI: 39 µM
CCRF-CEM leukemia
  GI50: 3.88 µM
  TGI: 37.3 µM

## COc1cc(CC2CC(c3ccc4c(c3)OCO4)OC2=O)cc(OC)c1OC (centres undefined)
SNB-19 CNS
  TGI: > 100 µM
MOLT-4 leukemia
  TGI: > 100 µM
NCI-H460 lung
  TGI: > 100 µM
OVCAR-3 ovarian
  TGI: > 100 µM
TK-10 renal
  TGI: > 100 µM
HS 578T breast
  TGI: > 100 µM
CCRF-CEM leukemia
  TGI: > 100 µM

## CCC1(CC)C(=O)[N-]C(=O)[N-]C1=O.[Au+].[Au+].c1ccc([PH+](c2ccccc2)c2ccccc2)cc1.c1ccc([PH+](c2ccccc2)c2ccccc2)cc1
NCI-H460 lung
  GI50: 1.99 µM
  TGI: 4.69 µM
OVCAR-3 ovarian
  GI50: 1.31 µM
  TGI: 2.59 µM
TK-10 renal
  GI50: 1.79 µM
  TGI: 3.18 µM

## N#C/C(=C\c1cccnc1)c1nc2ccccc2o1
SNB-19 CNS
  GI50: > 100 µM
  TGI: > 100 µM
MOLT-4 leukemia
  GI50: > 100 µM
  TGI: > 100 µM
NCI-H460 lung
  GI50: > 100 µM
  TGI: > 100 µM
OVCAR-3 ovarian
  GI50: > 100 µM
  TGI: > 100 µM
SK-MEL-2 melanoma
  GI50: > 100 µM
  TGI: > 100 µM
TK-10 renal
  GI50: > 100 µM
  TGI: > 100 µM
HS 578T breast
  GI50: > 100 µM
  TGI: > 100 µM

## N#Cc1ccc2c(c1)C(=O)c1c-2n(CCCN=[N+]=[N-])c(=O)c2cc([N+](=O)[O-])ccc12
SNB-19 CNS
  GI50: 33 µM
  TGI: > 50 µM
MOLT-4 leukemia
  GI50: 1.8 µM
  TGI: 9 µM
NCI-H460 lung
  GI50: 1.11 µM
  TGI: > 50 µM
OVCAR-3 ovarian
  GI50: > 50 µM
  TGI: > 50 µM
SK-MEL-2 melanoma
  GI50: > 50 µM
  TGI: > 50 µM
TK-10 renal
  GI50: > 50 µM
  TGI: > 50 µM
HS 578T breast
  GI50: > 50 µM
  TGI: > 50 µM
CCRF-CEM leukemia
  GI50: 1.82 µM
  TGI: > 50 µM

## C=C1C[C@@H]2[C@H](CC[C@]3(C)C(=O)CC[C@@H]23)[C@@]2(C)C=CC(=O)C=C12
SNB-19 CNS
  GI50: > 58.8 µM
  TGI: > 100 µM
MOLT-4 leukemia
  GI50: 25.7 µM
  TGI: > 92.6 µM
NCI-H460 lung
  GI50: 22 µM
  TGI: > 63.2 µM
OVCAR-3 ovarian
  GI50: 26.5 µM
  TGI: > 66.3 µM
SK-MEL-2 melanoma
  TGI: > 28.3 µM
TK-10 renal
  GI50: 48.1 µM
  TGI: > 100 µM
HS 578T breast
  GI50: 25.1 µM
  TGI: > 77.2 µM
CCRF-CEM leukemia
  GI50: 24.5 µM
  TGI: > 74.9 µM

## CCC(=O)OC1=CN2C(=NC(c3ccc(N)cc3)=CC2c2cc(OC)c(OC)c(OC)c2)S1 (centres undefined)
SNB-19 CNS
  GI50: 3.59 µM
  TGI: 16.4 µM
MOLT-4 leukemia
  GI50: 3.89 µM
  TGI: 64.7 µM
NCI-H460 lung
  GI50: 2.61 µM
  TGI: 8.52 µM
OVCAR-3 ovarian
  GI50: 2.47 µM
  TGI: 5.56 µM
SK-MEL-2 melanoma
  GI50: 5.93 µM
  TGI: 20.4 µM
TK-10 renal
  GI50: 4 µM
  TGI: 16.1 µM
HS 578T breast
  GI50: 3.6 µM
  TGI: > 100 µM
CCRF-CEM leukemia
  GI50: 2.41 µM
  TGI: 9.13 µM

## COc1cc(/C=C/c2cc(/C=C/c3ccc(O)c(OC)c3)[nH]c(=O)n2)ccc1O
SNB-19 CNS
  GI50: 3.38 µM
  TGI: > 100 µM
MOLT-4 leukemia
  GI50: 2.55 µM
  TGI: 11.7 µM
NCI-H460 lung
  GI50: 3.12 µM
  TGI: 18.5 µM
OVCAR-3 ovarian
  GI50: 3.8 µM
  TGI: 33.5 µM
SK-MEL-2 melanoma
  GI50: 2.88 µM
  TGI: 6.7 µM
TK-10 renal
  GI50: 6.13 µM
  TGI: 36 µM
HS 578T breast
  GI50: 1.8 µM
  TGI: 6.75 µM
CCRF-CEM leukemia
  GI50: 2.1 µM
  TGI: 6.22 µM

## CC(=O)O[C@H](C[C@H](C(C)C)N(C)C(=O)[C@@H](NC(=O)[C@H]1CCCCN1C)C(C)(C)C)c1nc(C(=O)N[C@@H](Cc2ccccc2)C[C@H](C)C(=O)O)cs1
SNB-19 CNS
  GI50: < 0.0025 µM
  TGI: > 25 µM
MOLT-4 leukemia
  GI50: < 0.0025 µM
  TGI: > 25 µM
NCI-H460 lung
  GI50: < 0.0025 µM
  TGI: > 25 µM
OVCAR-3 ovarian
  GI50: < 0.0025 µM
  TGI: 0.00448 µM
SK-MEL-2 melanoma
  GI50: < 0.0025 µM
  TGI: > 25 µM
TK-10 renal
  GI50: 0.00962 µM
  TGI: > 25 µM
HS 578T breast
  GI50: < 0.0025 µM
  TGI: > 23.6 µM
CCRF-CEM leukemia
  GI50: < 0.0025 µM
  TGI: > 25 µM

## COc1cc(/C=C\c2cc(OC)c(OC)c(OC)c2)cc(NS(=O)(=O)c2cccc(Cl)c2)c1OC
SNB-19 CNS
  GI50: 0.214 µM
  TGI: > 100 µM
MOLT-4 leukemia
  GI50: 0.0456 µM
  TGI: > 100 µM
NCI-H460 lung
  GI50: 0.0362 µM
  TGI: > 100 µM
OVCAR-3 ovarian
  GI50: 0.0346 µM
  TGI: > 100 µM
SK-MEL-2 melanoma
  GI50: 1.38 µM
  TGI: > 100 µM
TK-10 renal
  GI50: 2.01 µM
  TGI: > 100 µM
HS 578T breast
  GI50: 0.0795 µM
  TGI: > 100 µM
CCRF-CEM leukemia
  GI50: 0.0492 µM
  TGI: > 100 µM
